Results as given in patent US20080085264A1, “METHODS FOR ENHANCING STEM CELL ENGRAFTMENT DURING TRANSPLANTATION” (priority 2003, published 2008).

Key:
[1] = system: Sca-1+c-kit+lin- mBM cells; experiment: Chemotaxis assay, CXCL12 induced migration of sorted Sca-1+c-kit+lin- mBM cells; type: cell-based, mouse; conditions: 5 mM Diprotin A
Experimental: Chemotaxis assays were performed using 96-well chemotaxis chambers (NeuroProbe, Gaithersburg, Md.) in accordance with manufacturer's instructions as described previously with minor variations (Christopherson K W, 2nd, et al. J Immunol. 2002; 169:7000-7008; Christopherson K W, 2nd, et al. Blood. 2001; 98:3562-3568; Christopherson K, 2nd, et al. Immunol Lett. 1999; 69:269-273). Briefly 300 μl of RPMI supplemented with 10% FBS and either 0, 100, 200, and 400 ng/ml of mouse CXCL12 chemokine was added to the lower chamber. Ten-thousand sorted cells in 50 μL of media were added to the upper side of the membrane (5.7 mm diameter, 5 μm pore size, polycarbonate membrane.)
Total cell number in the lower well was obtained by counting using hemocytometer after 4 hours of incubation at 37° C., 5% CO2. Percent migration was calculated by dividing the number of the cells in the lower well by the total cell input multiplied by 100 and subtracting random migration (always less than 5%) to the lower chamber without chemokine presence. Three samples were analyzed separately in triplicate, and then the data averaged for statistical analysis.
The N-terminal truncated mouse CXCL12 (CXCL12 (amino acids 3-68)) was produced by treatment of mouse CXCL12 with DPPIV (Enzyme Systems Products, Livermore, Calif.) for 18 hrs at 37° C. in PBS pH 7.4. […]

DBA/2 mice [2] = experiment: G-CSF induced mobilization of HSC/HPC in DBA/2 mice (progenitor cell assays of peripheral blood); type: in vivo, mouse; conditions: inhibitor treatment during G-CSF mobilization
Experimental: Mobilization was achieved by treating mice with 2.5 μg (micrograms) G-CSF/mouse 2×/day s.c. for 2 days (Broxmeyer H E, et al. J Exp Med. 1999; 189:1987-1992). Mice simultaneously treated with a specific CD26 inhibitor also underwent treatment with either 5 μmol Diprotin A/mouse 2×/day s.c. for 2 days or 5 μmol Val-Pyr/mouse 2×/day s.c. for 2 days. Diprotin A was obtained commercially (Peptides International, Louisville, Ky.) and Val-Pyr was obtained as a gift from Nicolai Wagtmann (Novo Nordisk, Denmark). After either G-CSF or G-CSF plus CD26 inhibitor treatment peripheral blood cells were collected and total cellular nuclearity was measured and progenitor cell assays were performed using total peripheral blood cells.
One-hundred thousand mouse G-CSF mobilized peripheral blood cells were plated in triplicate for colony formation by CFU-GM, BFU-E, and CFU-GEMM and scored at 7 days incubation as previously described (Cooper S, Broxmeyer H E. Measurement of interleukin-3 and other hematopoietic growth factors, such as GM-CSF, G-CSF, M-CSF, erkythropoietin and the potent co-stimulating cytokines steel factor and FLt-3 ligand. In: Coligan J E K A, Margulies D H, Shevach E M, Strober E, Coico R, ed. Current protocols in immunology. New York: John Wiley & Sons; 1996:6.4.1-6.4.12). Cells were plated for colony formation in 1% methylcellulose culture medium containing 30% FBS, 1 U/ml recombinant(r) human Epo, 0.1 mM Hemin, 5% Pokeweed Mitogen Spleen Conditioned Media (PWMSCM), and 50 ng/ml rmouse Steel Factor (=Stem Cell Factor, SCF).

BoyJ irradiated mice = experiment: Competitive repopulation assay; type: in vivo, mouse; conditions: six months post transplant, 5×10^5 or 2.5×10^5 donor cells vs 5×10^5 competitor BoyJ cells
Excerpt: Donor LDBM cells (5×10^5) from representative mice from each test group were transplanted into lethally irradiated BoyJ mice (expressing CD45.1) Quantitative contribution to chimerism was obtained 2-6 months post-transplantation in the same manner described for long-term engraftment assays.
Eight week old female recipient mice were lethally irradiated (1100 cGy split dose) prior to transplantation as previously described (Haneline L S, et al. Blood. 1999; 94:1-8). Limiting dilutions of donor LD BM cells (5×10^5, 2.5×10^5, 1.25×10^5, and 0.625×10^5 cells) from control C57Bl/6 mice, CD26-inhibitor treated LD BM cells, or untreated LD BM cells from CD26^−/− mice (all expressing CD45.2) are co-transplanted with a constant number (5×10^5) of pooled competitive BM cells from congenic BoyJ mice (expressing CD45.1), into BoyJ irradiated mice. To determine quantitatively the relative cell contribution to chimerism of each test cell population tail-vein blood samples were obtained post-transplantation each month for three months and CD45.1 and CD45.2 was measured by flow-cytometry. Cells were divided into CD26 inhibitor (either Diprotin A or Val-Pyr) treated or untreated groups obtained from normal C57BL/6 mice and untreated cells obtained from CD26^−/− mice. […]

DBA/2 mice [3] = experiment: G-CSF induced mobilization of HSC/HPC in DBA/2 mice (progenitor cell assays of peripheral blood); type: in vivo, mouse; conditions: without G-CSF
BoyJ recipient mice = experiment: Non-competitive long-term engraftment; type: in vivo, mouse; conditions: six months post transplant, P<0.05, n=5
Experimental: Control C57BL/6 (CD45.2^+) or CD26 inhibitor treated C57BL/6 (CD45.2^+) LD donor BM cells were transplanted by tail-vein injection into lethally irradiated (1100 cGy split dose) congenic BoyJ (CD45.1^+) female recipient mice (Haneline L S, et al. Blood. 1999; 94:1-8). Contribution of donor cells was obtained by measuring the number of donor and residual recipient lymphocytes in the peripheral blood. The % donor contribution was calculated by flow cytometric analysis of peripheral blood lymphocytes found in the recipient mouse peripheral blood by measuring CD45.1^+ and CD45.2^+ on cells isolated from the recipient mice 1-6 months post transplant. No less than five mice from each recipient group were analyzed, each one having received a transplant of 5×10^5 pooled LD donor BM cells. Comparisons between treatment groups were made using a two-tailed Student's t-test and data was plotted as mean (M)±standard error of the mean (SEM).

Substance: Ile-Pro-Ile [Diprotin A]
- enhancement in migration ([1]; 100 ng/ml CXCL12): two-fold
- increase in total cell migration ([1]; 200 and 400 ng/ml CXCL12): 1.7 fold
- reduction in BFU-E compared to G-CSF alone (DBA/2 mice [2]): 56%
- reduction in CFU-GEMM compared to G-CSF alone (DBA/2 mice [2]): 71%
- reduction in CFU-GM compared to G-CSF alone (DBA/2 mice [2]): 62%
- donor contribution to chimerism (BoyJ irradiated mice): increased donor contribution to chimerism
- effect on the mobilization of progenitors, inhibitor alone (DBA/2 mice [3]): little or no effect
- donor cell contribution to the formation of peripheral blood leukocytes (BoyJ recipient mice): Increased donor cell contribution
